Test results: the supplement of paper PMC10307832

Assays:
Test in all cases: relative viability (nuclei count vs DMSO), 5 days (fraction); higher = more cells survive
[1] = compound: CN1CCN(c2ccc3nc(-c4c(N)c5c(F)cccc5[nH]c4=O)[nH]c3c2)CC1 [Dovitinib] + O=C(CCCCCCC(=O)Nc1ccccc1)NO [Vorinostat] (partner 1 µM)
Outline: (§1)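 Lung cancer cell lines were seeded in 1536-well plates and dosed by pin tool the next day, with either a single drug or a fixed anchor-drug dose combined with five library-drug doses (not always all listed) spaced in √10 steps. Five days later, one step fixed the cells and stained their nuclei (final 0.05% Triton X-100, 1% formaldehyde, 1 ug/ml Hoechst), and nuclei were counted on 4× images. Relative viability is the nuclei count in treated wells divided by the count in vehicle wells, and each value is the median of duplicate plates.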

[2] = compound: CN1CCN(c2ccc3nc(-c4c(N)c5c(F)cccc5[nH]c4=O)[nH]c3c2)CC1 [Dovitinib] + Cc1nc(NC(=O)N2CCC[C@H]2C(N)=O)sc1-c1ccnc(C(C)(C)C(F)(F)F)c1 [Alpelisib] (partner 2 µM)
Outline: as §1

[3] = compound: CN1CCN(c2ccc3nc(-c4c(N)c5c(F)cccc5[nH]c4=O)[nH]c3c2)CC1 [Dovitinib] + CC1(C)CCC(c2ccc(Cl)cc2)=C(CN2CCN(c3ccc(C(=O)NS(=O)(=O)c4ccc(N[C@H](CCN5CCOCC5)CSc5ccccc5)c(S(=O)(=O)C(F)(F)F)c4)cc3)CC2)C1 [Navitoclax] (partner 0.5 µM)
Outline: as §1

[4] = compound: CN1CCN(c2ccc3nc(-c4c(N)c5c(F)cccc5[nH]c4=O)[nH]c3c2)CC1 [Dovitinib] + C[C@]1(O)C[C@@H](c2nc(-c3ccc4ccc(-c5ccccc5)nc4c3)c3c(N)nccn32)C1 [Linsitinib] (partner 1 µM)
Outline: as §1

In the case of LC-2-ad, the relative viability ([1]; first compound 0.02 µM) is reported as 0.674, the relative viability ([1]; first compound 0.06325 µM) is reported as 0.735 and the relative viability ([1]; first compound 0.2 µM) is reported as 0.712. For the same cell line, the relative viability ([1]; first compound 0.6325 µM) was 0.758, the relative viability ([1]; first compound 2 µM) was 0.804 and the relative viability ([2]; first compound 0.02 µM) was 0.873. For the same cell line, the relative viability ([2]; first compound 0.06325 µM) was 0.833, the relative viability ([2]; first compound 0.2 µM) was 0.728 and the relative viability ([2]; first compound 0.6325 µM) was 0.8. It also gave a relative viability ([2]; first compound 2 µM) of 0.74, a relative viability ([3]; first compound 0.02 µM) of 0.463 and a relative viability ([3]; first compound 0.06325 µM) of 0.603. For the same cell line, the relative viability ([3]; first compound 0.2 µM) was 0.403, the relative viability ([3]; first compound 0.6325 µM) was 0.382 and the relative viability ([3]; first compound 2 µM) was 0.376. The relative viability ([4]; first compound 0.02 µM) was 0.798, the relative viability ([4]; first compound 0.06325 µM) was 0.919 and the relative viability ([4]; first compound 0.2 µM) was 0.84. It also gave a relative viability ([4]; first compound 0.6325 µM) of 0.782 and a relative viability ([4]; first compound 2 µM) of 0.773.
Work on HCC-15 yielded a relative viability ([1]; first compound 0.02 µM) of 0.931, a relative viability ([1]; first compound 0.06325 µM) of 0.873 and a relative viability ([1]; first compound 0.2 µM) of 0.815. It also gave a relative viability ([1]; first compound 0.6325 µM) of 0.837, a relative viability ([1]; first compound 2 µM) of 0.85 and a relative viability ([2]; first compound 0.02 µM) of 0.916. For the same cell line, the relative viability ([2]; first compound 0.06325 µM) was 0.868, the relative viability ([2]; first compound 0.2 µM) was 0.915 and the relative viability ([2]; first compound 0.6325 µM) was 0.848. The relative viability ([2]; first compound 2 µM) was 0.939, the relative viability ([3]; first compound 0.02 µM) was 0.777 and the relative viability ([3]; first compound 0.06325 µM) was 0.701. For the same cell line, the relative viability ([3]; first compound 0.2 µM) was 0.707, the relative viability ([3]; first compound 0.6325 µM) was 0.708 and the relative viability ([3]; first compound 2 µM) was 0.7. It also gave a relative viability ([4]; first compound 0.02 µM) of 0.952, a relative viability ([4]; first compound 0.06325 µM) of 0.831 and a relative viability ([4]; first compound 0.2 µM) of 0.938. The relative viability ([4]; first compound 0.6325 µM) was 0.879 and the relative viability ([4]; first compound 2 µM) was 0.941.
NCI-H2405 was tested, and the relative viability ([1]; first compound 0.02 µM) was 0.99, the relative viability ([1]; first compound 0.06325 µM) was 0.961 and the relative viability ([1]; first compound 0.2 µM) was 1.07. It also gave a relative viability ([1]; first compound 0.6325 µM) of 1.06, a relative viability ([1]; first compound 2 µM) of 1.17 and a relative viability ([2]; first compound 0.02 µM) of 0.819. It also gave a relative viability ([2]; first compound 0.06325 µM) of 0.744, a relative viability ([2]; first compound 0.2 µM) of 0.791 and a relative viability ([2]; first compound 0.6325 µM) of 0.77. For the same cell line, the relative viability ([2]; first compound 2 µM) was 0.965, the relative viability ([3]; first compound 0.02 µM) was 0.897 and the relative viability ([3]; first compound 0.06325 µM) was 0.836. For the same cell line, the relative viability ([3]; first compound 0.2 µM) was 0.86, the relative viability ([3]; first compound 0.6325 µM) was 0.807 and the relative viability ([3]; first compound 2 µM) was 1.32. It also gave a relative viability ([4]; first compound 0.02 µM) of 0.954, a relative viability ([4]; first compound 0.06325 µM) of 0.873 and a relative viability ([4]; first compound 0.2 µM) of 0.971. It also gave a relative viability ([4]; first compound 0.6325 µM) of 0.873 and a relative viability ([4]; first compound 2 µM) of 1.05.
Work on LXF-289 yielded a relative viability ([1]; first compound 0.02 µM) of 0.781, a relative viability ([1]; first compound 0.06325 µM) of 0.836 and a relative viability ([1]; first compound 0.2 µM) of 0.807. The relative viability ([1]; first compound 0.6325 µM) was 0.847, the relative viability ([1]; first compound 2 µM) was 0.746 and the relative viability ([2]; first compound 0.02 µM) was 1.01. For the same cell line, the relative viability ([2]; first compound 0.06325 µM) was 1.02, the relative viability ([2]; first compound 0.2 µM) was 1.02 and the relative viability ([2]; first compound 0.6325 µM) was 1.03. The relative viability ([2]; first compound 2 µM) was 0.926, the relative viability ([3]; first compound 0.02 µM) was 0.909 and the relative viability ([3]; first compound 0.06325 µM) was 0.929. For the same cell line, the relative viability ([3]; first compound 0.2 µM) was 0.945, the relative viability ([3]; first compound 0.6325 µM) was 0.941 and the relative viability ([3]; first compound 2 µM) was 0.858. For the same cell line, the relative viability ([4]; first compound 0.02 µM) was 0.907, the relative viability ([4]; first compound 0.06325 µM) was 0.942 and the relative viability ([4]; first compound 0.2 µM) was 0.935. The relative viability ([4]; first compound 0.6325 µM) was 0.939 and the relative viability ([4]; first compound 2 µM) was 0.878.
Cell Line CAL-12T has a relative viability ([1]; first compound 0.02 µM) of 0.754, a relative viability ([1]; first compound 0.06325 µM) of 0.73 and a relative viability ([1]; first compound 0.2 µM) of 0.926. It also gave a relative viability ([1]; first compound 0.6325 µM) of 0.829, a relative viability ([1]; first compound 2 µM) of 0.764 and a relative viability ([2]; first compound 0.02 µM) of 1.16. The relative viability ([2]; first compound 0.06325 µM) was 1.06, the relative viability ([2]; first compound 0.2 µM) was 1.18 and the relative viability ([2]; first compound 0.6325 µM) was 1.37. For the same cell line, the relative viability ([2]; first compound 2 µM) was 1.15, the relative viability ([3]; first compound 0.02 µM) was 1.24 and the relative viability ([3]; first compound 0.06325 µM) was 1.12. The relative viability ([3]; first compound 0.2 µM) was 1.43, the relative viability ([3]; first compound 0.6325 µM) was 1.17 and the relative viability ([3]; first compound 2 µM) was 1.42. For the same cell line, the relative viability ([4]; first compound 0.02 µM) was 0.839, the relative viability ([4]; first compound 0.06325 µM) was 0.894 and the relative viability ([4]; first compound 0.2 µM) was 0.756. The relative viability ([4]; first compound 0.6325 µM) was 0.784 and the relative viability ([4]; first compound 2 µM) was 0.82.
Work on COR-L23 yielded a relative viability ([1]; first compound 0.02 µM) of 0.431, a relative viability ([1]; first compound 0.06325 µM) of 0.505 and a relative viability ([1]; first compound 0.2 µM) of 0.551. The relative viability ([1]; first compound 0.6325 µM) was 0.379, the relative viability ([1]; first compound 2 µM) was 0.462 and the relative viability ([2]; first compound 0.02 µM) was 0.768. The relative viability ([2]; first compound 0.06325 µM) was 0.743, the relative viability ([2]; first compound 0.2 µM) was 0.69 and the relative viability ([2]; first compound 0.6325 µM) was 0.773. For the same cell line, the relative viability ([2]; first compound 2 µM) was 0.726, the relative viability ([3]; first compound 0.02 µM) was 0.962 and the relative viability ([3]; first compound 0.06325 µM) was 1.19. It also gave a relative viability ([3]; first compound 0.2 µM) of 1.02, a relative viability ([3]; first compound 0.6325 µM) of 1.05 and a relative viability ([3]; first compound 2 µM) of 1.07. For the same cell line, the relative viability ([4]; first compound 0.02 µM) was 0.876, the relative viability ([4]; first compound 0.06325 µM) was 1.05 and the relative viability ([4]; first compound 0.2 µM) was 0.943. For the same cell line, the relative viability ([4]; first compound 0.6325 µM) was 0.896 and the relative viability ([4]; first compound 2 µM) was 1.04.
Cell Line NCI-H1755 has a relative viability ([1]; first compound 0.02 µM) of 0.798, a relative viability ([1]; first compound 0.06325 µM) of 0.83 and a relative viability ([1]; first compound 0.2 µM) of 0.884. The relative viability ([1]; first compound 0.6325 µM) was 0.935, the relative viability ([1]; first compound 2 µM) was 0.776 and the relative viability ([2]; first compound 0.02 µM) was 0.951. It also gave a relative viability ([2]; first compound 0.06325 µM) of 0.916, a relative viability ([2]; first compound 0.2 µM) of 0.923 and a relative viability ([2]; first compound 0.6325 µM) of 0.903. The relative viability ([2]; first compound 2 µM) was 0.878, the relative viability ([3]; first compound 0.02 µM) was 1.02 and the relative viability ([3]; first compound 0.06325 µM) was 1. For the same cell line, the relative viability ([3]; first compound 0.2 µM) was 1.02, the relative viability ([3]; first compound 0.6325 µM) was 0.992 and the relative viability ([3]; first compound 2 µM) was 1.05. For the same cell line, the relative viability ([4]; first compound 0.02 µM) was 0.968, the relative viability ([4]; first compound 0.06325 µM) was 0.976 and the relative viability ([4]; first compound 0.2 µM) was 0.94. The relative viability ([4]; first compound 0.6325 µM) was 1.01 and the relative viability ([4]; first compound 2 µM) was 0.998.
For NCI-H1437, the relative viability ([1]; first compound 0.02 µM) was 0.884, the relative viability ([1]; first compound 0.06325 µM) was 0.847 and the relative viability ([1]; first compound 0.2 µM) was 0.9. The relative viability ([1]; first compound 0.6325 µM) was 0.803, the relative viability ([1]; first compound 2 µM) was 0.745 and the relative viability ([2]; first compound 0.02 µM) was 0.952. For the same cell line, the relative viability ([2]; first compound 0.06325 µM) was 0.981, the relative viability ([2]; first compound 0.2 µM) was 0.909 and the relative viability ([2]; first compound 0.6325 µM) was 0.904. It also gave a relative viability ([2]; first compound 2 µM) of 0.966, a relative viability ([3]; first compound 0.02 µM) of 1.01 and a relative viability ([3]; first compound 0.06325 µM) of 1.05. The relative viability ([3]; first compound 0.2 µM) was 1.05, the relative viability ([3]; first compound 0.6325 µM) was 1.05 and the relative viability ([3]; first compound 2 µM) was 1.07. The relative viability ([4]; first compound 0.02 µM) was 0.963, the relative viability ([4]; first compound 0.06325 µM) was 1.05 and the relative viability ([4]; first compound 0.2 µM) was 0.984. For the same cell line, the relative viability ([4]; first compound 0.6325 µM) was 0.955 and the relative viability ([4]; first compound 2 µM) was 1.03.
